Structures can show the parent of a compound that is named as a salt.
Tests used:
Type in all cases: cell-based
[1] = tested on: M7; assay: Leukemia cell growth inhibition evaluation (WST-8); conditions: Homo sapiens; day 3 (72-hour culture); read-out: Human leukemia cell line GI50 (μM) M7
Description: (§1) HL60, THP-1, K562, U937, KGla, HEL, and MDS-L were used as human leukemia cells. The cell lines are cell lines established from various subtypes such as acute myeloid leukemia, acute promyelocytic leukemia, acute monocytic leukemia, acute erythroid leukemia, and myelodysplastic syndromes, which progress to leukemia. Cells obtained by introducing leukemia fusion genes MLL/AF9, MLL/SEPT6, and MLL/ENL into the bone marrow of normal mice with a retrovirus so as to develop leukemia were used as murine leukemia cell lines.
(§2) This assay method involves, as a principle thereof, measuring an absorbance (a peak at from 450 nm to 490 nm) at the time of color development through a reaction of NADH, which is contained in the mitochondria of viable cells, and WST-8 to measure the amount of NADH. Specifically, the assay was performed by the following procedure.
(§3) The cells were plated at 50 μl, i.e., 5,000 cells per well in a 96-well microtiter plate. Next, a test compound dissolved in DMSO was mixed at various concentrations into the same medium, and 50 μl of each of the mixtures was added to each well. A medium was prepared so that the final concentration of the test compound was from 0 μM to 50 μM and so that the addition amount of DMSO was the same, and the cells were cultured in a CO2 incubator. On day 0 before the addition and on day 1, day 2, and day 3 after the addition, WST-8 reagent was added at 20 μl per well, and the cells were cultured for 1 hour in a CO2 incubator. After that, measurement was performed with ARVO X3 (manufactured by PerkinElmer).
(§4) Specifically, an absorbance at 450 nm was measured, an absorbance at 595 nm was measured in the same well, and the absorbance at 595 nm was subtracted from the absorbance at 450 nm to perform background correction for the well itself. Further, a well containing only a medium free of cells was subjected to the same measurement. A value in this case was also subtracted. Thus, the amount of viable cells was represented as a numerical value with correction of the influence of a medicament or a medium as well. Under a condition not containing the test compound (addition of only dimethyl sulfoxide), an exponential increase in number of viable cells on day 1, day 2, and day 3 in the stated order was confirmed.

[2] = tested on: K562; assay: Leukemia cell growth inhibition evaluation (WST-8); conditions: Homo sapiens, day 3 (72-hour culture), read-out: Human leukemia cell line GI50 (μM) K562
Description: as §1, §2, §3, §4

[3] = tested on: SH-SY5Y cells; assay: Cancer cell growth inhibition evaluation (MTT assay); conditions: Homo sapiens, read-out: GI50 (μM) SH-SY5Y
Procedure: (§5) Evaluation was performed by measuring the inhibitory activities of a compound against the growth of a human cervical cancer-derived cell line, HeLa cells, and a human neuroblastoma cell line, SH-SY5Y cells. Details thereof are shown below. […] This assay involves, as a principle thereof, measuring an absorbance at the time of color development through a reaction of NADH, which is contained in the mitochondria of viable cells, and MTT to measure the amount of NADH. The assay was performed by the following procedure. […] After the culture, a compound was added. Then, the cells were cultured for an additional 48 hours, and then 5 mg/ml MTT liquid was added at 10 μl per well. The cells were cultured for an additional 3 hours in a CO2 incubator. A solubilization solution (0.04 mol/l hydrochloric acid-isopropanol) was added at 100 μl per well and the mixture was vigorously vortexed. After that, an absorbance at 560 nm was measured with Fusion-aFP (manufactured by PerkinElmer) and the amount of viable cells was determined.

[4] = tested on: HeLa cells; assay: as above; conditions: Homo sapiens, 48 h, read-out: GI50 (μM) HeLa
Procedure: as §5

[5] = tested on: bone marrow cells of normal mice; assay: Normal cell growth inhibition evaluation (colony forming ability in methylcellulose semi-solid medium); conditions: 10 days culture, FIG. 1
Description: In general, a semi-solid medium obtained by adding a cytokine involved in differentiation induction to a methylcellulose medium is used to evaluate a colony forming ability. Some of the bone marrow cells contain hematopoietic stem cells and precursor cells, which are sources of hematopoietic cells, and these cells can create a mass (called a colony) formed of several tens, several hundreds, and in some cases, several thousands of cells from a single cell on a semi-solid medium. The colony forming ability of the bone marrow cells may be evaluated by counting the number of the colonies. The colony forming ability in the semi-solid medium well reflects an actual supply ability and construction ability from the hematopoietic stem cells and precursor cells to the hematopoietic cells in vivo.
To 3 ml of MethoCult M3434 (methylcellulose-based semi-solid medium; StemCell Technologies; containing interleukin 3(IL-3), interleukin 6 (IL-6), erythropoietin (EPO), and stem cell factor (SCF)) were added 600,000 bone marrow cells of normal mice (suspended in 300 μl of IMDM medium), and the mixture was stirred well and plated at 1.1 ml per 3.5-cm culture dish. The cells were cultured under the conditions of 5% CO2 and 37° C. for 10 days in an incubator. A mass in which the number of cells was 50 or more was defined as a colony, and the number of colonies formed on each dish was counted.

[6] = at a concentration of up to 5 μM

Molecule O=C(N[C@@H](CCCCNC1CC1c1ccccc1)C(=O)NCc1ccccc1)c1ccc(-c2ccccc2)cc1 (stereo partly drawn) [Example 8, 2-[N-(4-Phenylbenzenecarbonyl)]amino-6-(trans-2-phenylcyclopropan-1-amino)-N-benzylhexanamide Hydrochloride] has a GI50 [1] of ~6 µM, a GI50 [2] of 3.2 µM and a GI50 [3] of 4 µM. The GI50 [4] was 11 µM, the colony forming ability ([5]; at 10 μM) was “remarkably inhibited” and the colony forming ability [5, 6] was “not inhibited”.
With O=C(N[C@@H](CCCCNC1CC1c1ccccc1)C(=O)NCc1cccc(C(F)(F)F)c1)c1ccc(-c2ccccc2)cc1 (stereo partly drawn) [Example 19, 2-[N-(4-Phenylbenzenecarbonyl)]amino-6-(trans-2-phenylcyclopropan-1-amino)-N-(3-trifluoromethylbenzyl)hexanamide Hydrochloride] the GI50 [3] was 2.9 µM, the GI50 [4] was 4.3 µM and the colony forming ability ([5]; at 10 μM) was “remarkably inhibited”. For the same molecule, the colony forming ability [5, 6] was “not inhibited”.

Source: patent publication US9388123B2, “LSD1-selective inhibitor having lysine structure” (KYOTO UNIVERSITY, priority 2012, dated 2016)
